Laboratory results taken from PubChem BioAssay (NCI).
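How tested: cells in 96-well plates exposed to compound for 48 hours at five concentrations. Definition used: TGI = concentration required for complete inhibition of growth.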

Columns and labels:
Assay in all cases: inhibition of tumour cell growth, NCI panel, 48 h
[1] = tested on: NCI-H23 lung
[2] = tested on: HCC-2998 colon
[3] = tested on: TK-10 renal
[4] = tested on: SNB-75 CNS
[5] = tested on: MOLT-4 leukemia
[6] = tested on: T-47D breast
[7] = tested on: EKVX NSCLC
[8] = tested on: HOP-62 NSCLC
[9] = tested on: OVCAR-5 ovarian
[10] = tested on: LOX IMVI melanoma
[11] = tested on: U251 CNS

Measured: TGI

CCOP(=O)(C/C=C/Cn1nc(Br)c(=O)[nH]c1=O)OCC
> 100 µM: all assays above
